Among the test systems are 786-0; A498; BT-549; CAKI-1; EKVX; HL-60; HOP-92; IGROV-1; M14; MDA-MB-231; MDA-MB-435; NCI-H226; NCI-H522; OVCAR-4; SF-539; SK-MEL-5; U-251; COLO 205; SK-OV-3; SNB-19.
Holding throughout (test): DTP human tumour cell line panel, 48 h

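Five compound concentrations were applied to cells in 96-well plates for 48 hours; endpoints were derived by simple linear interpolation of the resulting dose-response curve. Here, GI50 denotes the concentration required for 50% inhibition of growth.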 Active and inactive are the calls of the source. No stated cut-off is given here; in the data, active = GI50 up to about 1.1 µM and inactive = higher.

For the compound `Cc1cn2c(/C=N/NC(=N)N)c(-c3cccc([N+](=O)[O-])c3)nc2s1`, the GI50 (as a rule, the concentration giving 50% growth inhibition) was 1.47 µM (inactive) with 786-0; 1.48 µM (inactive) with A498; 1.75 µM (inactive) in the assay with BT-549; 2.42 µM (inactive) in the assay on CAKI-1; 2.38 µM (inactive) in the assay on EKVX; 1.92 µM (inactive) in the assay with HL-60. For the same compound, the GI50 in the assay on HOP-92 is 1.64 µM (inactive); in the assay on IGROV-1, 5.56 µM (inactive); in the assay with M14 it was 1.85 µM (inactive); in the assay on MDA-MB-231, 1.41 µM (inactive); in the assay on MDA-MB-435 it was 1.82 µM (inactive); in the assay with NCI-H226, 1.91 µM (inactive). Moreover, the GI50 was 2.08 µM (inactive) in the assay on NCI-H522; 0.153 µM (active) with OVCAR-4; 1.98 µM (inactive) in the assay on SF-539; 1.63 µM (inactive) with SK-MEL-5; 1.6 µM (inactive) in the assay on U-251.

As to `CC(=O)NCCCCN(CCCNC(C)=O)C(=O)CNS(=O)(=O)c1cccc2c(N(C)C)cccc12`, the GI50 in the assay with 786-0, in the assay with A498, in the assay with BT-549, in the assay on COLO 205, in the assay with EKVX and with HL-60 was > 100 µM (inactive) in each case. Moreover, the GI50 in the assay on HOP-92, in the assay on IGROV-1, in the assay with M14, in the assay on MDA-MB-231, with MDA-MB-435 and in the assay on NCI-H226 was > 100 µM (inactive) each time. Further, the GI50 with NCI-H522, in the assay with OVCAR-4, in the assay with SF-539, in the assay with SK-MEL-5, with SK-OV-3 and in the assay with SNB-19 was > 100 µM (inactive) throughout. Further, in the assay on U-251, the GI50 is > 100 µM (inactive).

For `C/C(=N/NC(=S)N(Cc1ccccn1)Cc1ccccn1)c1cnccn1`, the GI50 with 786-0 is 0.393 µM (active); in the assay on A498, 9.84 µM (inactive); in the assay on BT-549, 0.646 µM (active); with CAKI-1 it was 0.429 µM (active); in the assay with COLO 205 it was 0.0861 µM (active); in the assay on EKVX, 0.189 µM (active). The GI50 in the assay with HL-60 is 0.126 µM (active); with HOP-92, 1.23 µM (inactive); in the assay with IGROV-1, 0.288 µM (active); in the assay on M14 it was 0.0622 µM (active); in the assay on MDA-MB-231, 0.646 µM (active); in the assay with MDA-MB-435, 0.897 µM (active). In addition, the concentration for 50% growth inhibition (GI50) in the assay on NCI-H226 was < 0.0178 µM (active); with NCI-H522, 0.0381 µM (active); with OVCAR-4, 0.288 µM (active); in the assay with SK-MEL-5, 0.432 µM (active); in the assay on SK-OV-3 it was 0.476 µM (active); in the assay with SNB-19, 0.962 µM (active). The GI50 in the assay on U-251 was 0.129 µM (active).

For the compound `S=C(N/N=C(\C(=N/NC(=S)N1CCCCC1)c1ccccn1)c1ccccn1)N1CCCCC1`, the GI50 in the assay with 786-0 was 36.5 µM (inactive); with A498, 32.7 µM (inactive); in the assay on BT-549, 78.2 µM (inactive); with CAKI-1, 73.6 µM (inactive); in the assay with COLO 205, 6.38 µM (inactive); in the assay on EKVX, 80 µM (inactive). Besides, the GI50 in the assay with HL-60 was 1.12 µM (active); in the assay with HOP-92, 64.3 µM (inactive); with IGROV-1, 48.8 µM (inactive); with M14 it was 15.2 µM (inactive); in the assay with MDA-MB-231, > 100 µM (inactive); in the assay with MDA-MB-435 it was 38.4 µM (inactive). For the same compound, the GI50 was 26.3 µM (inactive) with NCI-H226; 9.18 µM (inactive) with NCI-H522; 35.4 µM (inactive) in the assay with SF-539; 5.5 µM (inactive) with SK-MEL-5; 29.1 µM (inactive) in the assay on SK-OV-3; 30.3 µM (inactive) in the assay with SNB-19. For the same compound, in the assay on U-251, the GI50 was 32.7 µM (inactive).

Source of the values: ChEMBL document CHEMBL1201862, “PubChem BioAssay data set” (2004).
